According to ChEMBL document CHEMBL4665709, “Rational Avoidance of Protease Cleavage Sites and Symmetrical End-Tagging Significantly Enhances the Stability and Therapeutic Potential of Antimicrobial Peptides” (J Med Chem, 2020):
Converted amounts (≈) assume the structure as drawn. Where a SMILES comes first, the peptide text is derived from it.

Key:
[1] = Therapeutic index, ratio of MHC for human RBC to geometric mean of peptide MIC for Streptococcus agalactiae H92; type: toxicity; conditions: human red blood cells (RBC), read-out: TI
[2] = Therapeutic index, ratio of MHC for human RBC to geometric mean of peptide MIC for Staphylococcus epidermidis ATCC 12228; type: toxicity; conditions: human red blood cells (RBC), read-out: TI
[3] = Therapeutic index, ratio of MHC for human RBC to geometric mean of peptide MIC for methicillin-resistant Staphylococcus aureus 43300; type: toxicity; conditions: human red blood cells (RBC), read-out: TI
[4] = Therapeutic index, ratio of MHC for human RBC to geometric mean of peptide MIC for Enterococcus faecalis ATCC 29212; type: toxicity; conditions: human red blood cells (RBC), read-out: TI
[5] = Therapeutic index, ratio of MHC for human RBC to geometric mean of peptide MIC for Staphylococcus aureus ATCC 29213; type: toxicity; conditions: human red blood cells (RBC), read-out: TI
[6] = Therapeutic index, ratio of MHC for human RBC to geometric mean of peptide MIC for Staphylococcus aureus 11011; type: toxicity; conditions: human red blood cells (RBC), read-out: TI
[7] = Therapeutic index, ratio of MHC for human RBC to geometric mean of peptide MIC for Salmonella pullorum 7913; type: toxicity; conditions: human red blood cells (RBC), read-out: TI
[8] = Therapeutic index, ratio of MHC for human RBC to geometric mean of peptide MIC for Salmonella typhimurium 7731; type: toxicity; conditions: human red blood cells (RBC), read-out: TI
[9] = Therapeutic index, ratio of MHC for human RBC to geometric mean of peptide MIC for Salmonella choleraesuis 503; type: toxicity; conditions: human red blood cells (RBC), read-out: TI
[10] = Therapeutic index, ratio of MHC for human RBC to geometric mean of peptide MIC for Escherichia coli UB1005; type: toxicity; conditions: human red blood cells (RBC), read-out: TI
[11] = Therapeutic index, ratio of MHC for human RBC to geometric mean of peptide MIC for Salmonella typhimurium 14028; type: toxicity; conditions: human red blood cells (RBC), read-out: TI
[12] = Therapeutic index, ratio of MHC for human RBC to geometric mean of peptide MIC for Escherichia coli ATCC 25922; type: toxicity; conditions: human red blood cells (RBC), read-out: TI
Staphylococcus aureus [13] = assay: Antibacterial activity against Staphylococcus aureus ATCC 29213 after 18 to 24 hrs by CLSI-based broth microdilution method; type: functional; conditions: time hrs 18-24
Staphylococcus aureus [14] = assay: Antibacterial activity against Staphylococcus aureus 11011 after 18 to 24 hrs by CLSI-based broth microdilution method; type: functional; conditions: time hrs 18-24
Escherichia coli [15] = assay: Antibacterial activity against Escherichia coli ATCC 25922 after 18 to 24 hrs by CLSI-based broth microdilution method; type: functional; conditions: time hrs 18-24
Escherichia coli [16] = assay: Antibacterial activity against Escherichia coli UB1005 after 18 to 24 hrs by CLSI-based broth microdilution method; type: functional; conditions: time hrs 18-24
Salmonella typhimurium [17] = assay: Antibacterial activity against Salmonella typhimurium 14028 after 18 to 24 hrs by CLSI-based broth microdilution method; type: functional, Salmonella enterica subsp. enterica serovar Typhimurium; conditions: Salmonella enterica, time hrs 18-24
Salmonella typhimurium [18] = assay: Antibacterial activity against Salmonella typhimurium 7731 after 18 to 24 hrs by CLSI-based broth microdilution method; type: functional, Salmonella enterica subsp. enterica serovar Typhimurium; conditions: Salmonella enterica, time hrs 18-24
[19] = Antibacterial activity against Salmonella pullorum 7913 after 18 to 24 hrs by CLSI-based broth microdilution method; type: functional, Salmonella enterica subsp. enterica serovar Pullorum; conditions: Salmonella enterica, time hrs 18-24
Salmonella enterica = assay: Antibacterial activity against Salmonella choleraesuis 503 after 18 to 24 hrs by CLSI-based broth microdilution method; type: functional; conditions: time hrs 18-24
[20] = test system: Staphylococcus epidermidis; assay: Antibacterial activity against Staphylococcus epidermidis ATCC 12228 after 18 to 24 hrs by CLSI-based broth microdilution method; type: functional; conditions: time hrs 18-24
Enterococcus faecalis = assay: Antibacterial activity against Enterococcus faecalis ATCC 29212 after 18 to 24 hrs by CLSI-based broth microdilution method; type: functional; conditions: time hrs 18-24
Staphylococcus aureus [21] = assay: Antibacterial activity against methicillin-resistant Staphylococcus aureus 43300 after 18 to 24 hrs by CLSI-based broth microdilution method; type: functional; conditions: time hrs 18-24
Streptococcus agalactiae = assay: Antibacterial activity against Streptococcus agalactiae H92 after 18 to 24 hrs by CLSI-based broth microdilution method; type: functional; conditions: time hrs 18-24
Erythrocyte = assay: Hemolytic activity in human RBC assessed as hemolysis; type: ADME, cell-based
[22] = Hemolytic activity in human RBC assessed as hemolysis at 1 to 128 uM relative to control; type: ADME, cell-based, Erythrocyte; conditions: human red blood cells (RBC), dose 1-128 µM, read-out: Activity
[23] = Cytotoxicity against mouse RAW264.7 cells assessed as cell viability at 128 uM by MTT assay relative to control; type: cell-based; conditions: read-out: Activity
[24] = Cytotoxicity against HEK-293T cells assessed as cell viability at 128 uM by MTT assay relative to control; type: cell-based; conditions: human, read-out: Activity

Row | SMILES | selectivity ratio [1] | selectivity ratio [2] | selectivity ratio [3] | selectivity ratio [4] | selectivity ratio [5] | selectivity ratio [6] | selectivity ratio [7] | selectivity ratio [8] | selectivity ratio [9] | selectivity ratio [10] | selectivity ratio [11] | selectivity ratio [12] | MIC (Staphylococcus aureus [13]) | MIC (Staphylococcus aureus [14]) | MIC (Escherichia coli [15]) | MIC (Escherichia coli [16]) | MIC (Salmonella typhimurium [17]) | MIC (Salmonella typhimurium [18]) | MIC [19] | MIC (Salmonella enterica) | further results
1 | CC[C@H](C)[C@H](N)C(=O)N[C@@H](CS)C(=O)N[C@@H](CCCNC(=N)N)C(=O)N[C@@H](CCCCN)C(=O)N1CCC[C@H]1C(=O)N[C@H](C(=O)N[C@H](C(=O)N[C@@H](CS)C(=O)N[C@@H](CCCNC(=N)N)C(=O)N[C@@H](CCCCN)C(=O)N1CCC[C@H]1C(=O)N[C@H](C(N)=O)[C@@H](C)CC)[C@@H](C)CC)[C@@H](C)CC (H-ICRKPIICRKPI-NH2) | 2 | 2 | 2 | 2 | 2 | 2 | 2 | 2 | 2 | 2 | 2 | 2 | > 64 µM | > 64 µM | 64 µM (≈ 92.1 µg/mL) | > 64 µM | > 64 µM | > 64 µM | > 64 µM | > 64 µM | MIC [20]: > 64 µM; MIC (Enterococcus faecalis): > 64 µM; MIC (Staphylococcus aureus [21]): > 64 µM; MIC (Streptococcus agalactiae): > 64 µM; MHC (Erythrocyte): > 128 µM; hemolysis at up to 128 µM [22]: < 5%; viability at 128 µM [23]: > 90%; viability at 128 µM [24]: > 90%
2 | CC[C@H](C)[C@H](N)C(=O)N[C@@H](CS)C(=O)N[C@@H](CCCNC(=N)N)C(=O)N[C@@H](CCCCN)C(=O)N1CCC[C@H]1C(=O)N[C@H](C(=O)N[C@H](C(=O)N[C@@H](CS)C(=O)N[C@@H](CCCNC(=N)N)C(=O)N[C@@H](CCCCN)C(=O)N1CCC[C@H]1C(=O)N[C@H](C(=O)N[C@H](C(=O)N[C@@H](CS)C(=O)N[C@@H](CCCNC(=N)N)C(=O)N[C@@H](CCCCN)C(=O)N1CCC[C@H]1C(=O)N[C@H](C(N)=O)[C@@H](C)CC)[C@@H](C)CC)[C@@H](C)CC)[C@@H](C)CC)[C@@H](C)CC (H-ICRKPIICRKPIICRKPI-NH2) | 2 | 2 | 2 | 2 | 2 | 2 | 11.3 | 11.3 | 11.3 | 11.3 | 11.3 | 11.3 | > 64 µM | > 64 µM | 8 µM (≈ 17.2 µg/mL) | 4 µM (≈ 8.6 µg/mL) | 8 µM (≈ 17.2 µg/mL) | 8 µM (≈ 17.2 µg/mL) | 64 µM (≈ 138 µg/mL) | 16 µM (≈ 34.4 µg/mL) | MIC [20]: > 64 µM; MIC (Enterococcus faecalis): > 64 µM; MIC (Staphylococcus aureus [21]): > 64 µM; MIC (Streptococcus agalactiae): > 64 µM; MHC (Erythrocyte): > 128 µM; hemolysis at up to 128 µM [22]: < 5%; viability at 128 µM [23]: > 90%; viability at 128 µM [24]: > 90%
3 | CC[C@H](C)[C@H](N)C(=O)N[C@@H](CS)C(=O)N[C@@H](CCCNC(=N)N)C(=O)N[C@@H](CCCCN)C(=O)N1CCC[C@H]1C(=O)N[C@H](C(=O)N[C@H](C(=O)N[C@@H](CS)C(=O)N[C@@H](CCCNC(=N)N)C(=O)N[C@@H](CCCCN)C(=O)N1CCC[C@H]1C(=O)N[C@H](C(=O)N[C@H](C(=O)N[C@@H](CS)C(=O)N[C@@H](CCCNC(=N)N)C(=O)N[C@@H](CCCCN)C(=O)N1CCC[C@H]1C(=O)N[C@H](C(=O)N[C@H](C(=O)N[C@@H](CS)C(=O)N[C@@H](CCCNC(=N)N)C(=O)N[C@@H](CCCCN)C(=O)N1CCC[C@H]1C(=O)N[C@H](C(=O)N[C@H](C(=O)N[C@@H](CS)C(=O)N[C@@H](CCCNC(=N)N)C(=O)N[C@@H](CCCCN)C(=O)N1CCC[C@H]1C(=O)N[C@H](C(N)=O)[C@@H](C)CC)[C@@H](C)CC)[C@@H](C)CC)[C@@H](C)CC)[C@@H](C)CC)[C@@H](C)CC)[C@@H](C)CC)[C@@H](C)CC)[C@@H](C)CC (H-ICRKPIICRKPIICRKPIICRKPIICRKPI-NH2) | 2 | 2 | 2 | 2 | 2 | 2 | 28.5 | 28.5 | 28.5 | 28.5 | 28.5 | 28.5 | > 64 µM | > 64 µM | 4 µM (≈ 14.3 µg/mL) | 2 µM (≈ 7.14 µg/mL) | 4 µM (≈ 14.3 µg/mL) | 4 µM (≈ 14.3 µg/mL) | 8 µM (≈ 28.6 µg/mL) | 8 µM (≈ 28.6 µg/mL) | MIC [20]: > 64 µM; MIC (Enterococcus faecalis): > 64 µM; MIC (Staphylococcus aureus [21]): > 64 µM; MIC (Streptococcus agalactiae): > 64 µM; MHC (Erythrocyte): > 128 µM; hemolysis at up to 128 µM [22]: < 5%; viability at 128 µM [23]: > 90%; viability at 128 µM [24]: > 90%
4 | CC[C@H](C)[C@H](N)C(=O)N[C@H](C(=O)N[C@@H](CS)C(=O)N[C@@H](CCCNC(=N)N)C(=O)N[C@@H](CCCCN)C(=O)N1CCC[C@H]1C(=O)N[C@H](C(=O)N[C@H](C(=O)N[C@@H](CS)C(=O)N[C@@H](CCCNC(=N)N)C(=O)N[C@@H](CCCCN)C(=O)N1CCC[C@H]1C(=O)N[C@H](C(=O)N[C@H](C(N)=O)[C@@H](C)CC)[C@@H](C)CC)[C@@H](C)CC)[C@@H](C)CC)[C@@H](C)CC (H-IICRKPIICRKPII-NH2) | 2 | 2 | 2 | 2 | 2 | 2 | 4 | 4 | 4 | 4 | 4 | 4 | > 64 µM | > 64 µM | 16 µM (≈ 26.6 µg/mL) | 16 µM (≈ 26.6 µg/mL) | 32 µM (≈ 53.3 µg/mL) | 32 µM (≈ 53.3 µg/mL) | > 64 µM | > 64 µM | MIC [20]: > 64 µM; MIC (Enterococcus faecalis): > 64 µM; MIC (Staphylococcus aureus [21]): > 64 µM; MIC (Streptococcus agalactiae): > 64 µM; MHC (Erythrocyte): > 128 µM; hemolysis at up to 128 µM [22]: < 5%; viability at 128 µM [23]: > 90%; viability at 128 µM [24]: > 90%
5 | CC[C@H](C)[C@H](N)C(=O)N[C@H](C(=O)N[C@@H](CS)C(=O)N[C@@H](CCCNC(=N)N)C(=O)N[C@@H](CCCCN)C(=O)N1CCC[C@H]1C(=O)N[C@H](C(=O)N[C@H](C(=O)N[C@@H](CS)C(=O)N[C@@H](CCCNC(=N)N)C(=O)N[C@@H](CCCCN)C(=O)N1CCC[C@H]1C(=O)N[C@H](C(=O)N[C@H](C(=O)N[C@@H](CS)C(=O)N[C@@H](CCCNC(=N)N)C(=O)N[C@@H](CCCCN)C(=O)N1CCC[C@H]1C(=O)N[C@H](C(=O)N[C@H](C(N)=O)[C@@H](C)CC)[C@@H](C)CC)[C@@H](C)CC)[C@@H](C)CC)[C@@H](C)CC)[C@@H](C)CC)[C@@H](C)CC (H-IICRKPIICRKPIICRKPII-NH2) | 2 | 2 | 2 | 2 | 2 | 2 | 14.2 | 14.2 | 14.2 | 14.2 | 14.2 | 14.2 | > 64 µM | > 64 µM | 4 µM (≈ 9.5 µg/mL) | 4 µM (≈ 9.5 µg/mL) | 8 µM (≈ 19 µg/mL) | 8 µM (≈ 19 µg/mL) | 32 µM (≈ 76 µg/mL) | 16 µM (≈ 38 µg/mL) | MIC [20]: 64 µM (≈ 152 µg/mL); MIC (Enterococcus faecalis): > 64 µM; MIC (Staphylococcus aureus [21]): 64 µM (≈ 152 µg/mL); MIC (Streptococcus agalactiae): 64 µM (≈ 152 µg/mL); MHC (Erythrocyte): > 128 µM; hemolysis at up to 128 µM [22]: < 5%; viability at 128 µM [23]: > 90%; viability at 128 µM [24]: > 90%
